The subject of the assay is MV-4-11 cells. Nature of the assay: Gene expression microarray analysis (Affymetrix PrimeView) and GSEA. The settings on record: MV-4-11 cells, 48 hours. The assay is classed as cell-based, human. More on the design: RFU PODN (11730768_x_at) / Fold change /veh PODN (11730768_x_at) / RFU LINC00158 (11744669_a_at) / Fold change /veh LINC00158 (11744669_a_at) / RFU DUSP10 (11751237_a_at) / Fold change /veh DUSP10 (11751237_a_at) / RFU ID3 (11757404_x_at) / Fold change /veh ID3 (11757404_x_at) / RFU PLEKHG5 (11737974_s_at) / Fold change /veh PLEKHG5 (11737974_s_at) / RFU LRRC4B (11730491_at) / Fold change /veh LRRC4B (11730491_at) / RFU GIMAP4 (11747438_a_at) / Fold change /veh GIMAP4 (11747438_a_at) / RFU KRT8 (11758183_x_at) / Fold change /veh KRT8 (11758183_x_at) / RFU CNN1 (11734310_a_at) / Fold change /veh CNN1 (11734310_a_at) / RFU VPS37D (11726825_at) / Fold change /veh VPS37D (11726825_at) / RFU C10orf10 (11716522_x_at) / Fold change /veh C10orf10 (11716522_x_at) / RFU KIR2DL2 /// KIR2DL4 /// KIR2DL5A /// KIR2DL5B /// KIR2DS1 /// KIR2DS2 /// KIR2DS3 /// KIR2DS4 /// KIR3DL3 /// KIR3DL3 /// KIR3DS1 (11738374_at) / Fold change /veh KIR2DL2 /// KIR2DL4 /// KIR2DL5A /// KIR2DL5B /// KIR2DS1 /// KIR2DS2 /// KIR2DS3 /// KIR2DS4 /// KIR3DL3 /// KIR3DL3 /// KIR3DS1 (11738374_at) / RFU C1QL1 (11718748_at) / Fold change /veh C1QL1 (11718748_at) / RFU TMPRSS4 (11747572_a_at) / Fold change /veh TMPRSS4 (11747572_a_at) / RFU HAMP (11756126_x_at) / Fold change /veh HAMP (11756126_x_at) / RFU RNFT2 (11725882_a_at) / Fold change /veh RNFT2 (11725882_a_at) / RFU NR4A2 (11747474_a_at) / Fold change /veh NR4A2 (11747474_a_at) / RFU ABCC12 (11746883_a_at) / Fold change /veh ABCC12 (11746883_a_at) / RFU TMEM136 (11760407_x_at) / Fold change /veh TMEM136 (11760407_x_at) / RFU CLDN22 /// WWC2 (11732394_at) / Fold change /veh CLDN22 /// WWC2 (11732394_at) / RFU HLA-DPB1 (11760878_x_at) / Fold change /veh HLA-DPB1 (11760878_x_at) / RFU SPINT1 (11716480_a_at) / Fold change /veh SPINT1 (11716480_a_at) / RFU GAP43 (11754022_s_at) / Fold change /veh GAP43 (11754022_s_at) / RFU A4GNT (11735810_at) / Fold change /veh A4GNT (11735810_at) / RFU PRB3 (11715151_x_at) / Fold change /veh PRB3 (11715151_x_at) / RFU TUBB4B (11761932_at) / Fold change /veh TUBB4B (11761932_at) / RFU CAPN14 (11732068_a_at) / Fold change /veh CAPN14 (11732068_a_at) / RFU TMCC2 (11721928_a_at) / Fold change /veh TMCC2 (11721928_a_at) / RFU IRGQ (11745062_a_at) / Fold change /veh IRGQ (11745062_a_at) / RFU FAM174B (11720279_a_at) / Fold change /veh FAM174B (11720279_a_at) / RFU TMPRSS4 (11748680_a_at) / Fold change /veh TMPRSS4 (11748680_a_at) / RFU FAM212B (11763350_a_at) / Fold change /veh FAM212B (11763350_a_at) / RFU PLEKHG5 (11743358_a_at) / Fold change /veh PLEKHG5 (11743358_a_at) / RFU ZSCAN30 (11745921_a_at) / Fold change /veh ZSCAN30 (11745921_a_at) / RFU CMKLR1 (11741424_a_at) / Fold change /veh CMKLR1 (11741424_a_at) / RFU LOC101060620 /// MAPK8IP1 (11723275_at) / Fold change /veh LOC101060620 /// MAPK8IP1 (11723275_at) / RFU SPTSSB (11747773_x_at) / Fold change /veh SPTSSB (11747773_x_at) / RFU PRSS12 (11739890_at) / Fold change /veh PRSS12 (11739890_at) / RFU BIN1 (11741810_x_at) / Fold change /veh BIN1 (11741810_x_at) / RFU WNT11 (11732464_a_at) / Fold change /veh WNT11 (11732464_a_at) / RFU C10orf10 (11716521_a_at) / Fold change /veh C10orf10 (11716521_a_at) / RFU C5orf56 (11738089_at) / Fold change /veh C5orf56 (11738089_at) / RFU CYB561 (11721691_x_at) / Fold change /veh CYB561 (11721691_x_at) / RFU ANKRD19P (11752326_a_at) / Fold change /veh ANKRD19P (11752326_a_at) / RFU OR2T12 /// OR2T33 /// OR2T8 (11738714_s_at) / Fold change /veh OR2T12 /// OR2T33 /// OR2T8 (11738714_s_at) / RFU VCAN (11748164_a_at) / Fold change /veh VCAN (11748164_a_at) / RFU JSRP1 (11732532_at) / Fold change /veh JSRP1 (11732532_at) / RFU KRTAP10-11 (11738290_x_at) / Fold change /veh KRTAP10-11 (11738290_x_at) / RFU MYO3A (11730013_a_at) / Fold change /veh MYO3A (11730013_a_at) / RFU EBF3 (11725865_a_at) / Fold change /veh EBF3 (11725865_a_at) / RFU CAMK2N1 (11719241_x_at) / Fold change /veh CAMK2N1 (11719241_x_at) / RFU C5orf56 (11738088_a_at) / Fold change /veh C5orf56 (11738088_a_at) / RFU OLFML3 (11715873_a_at) / Fold change /veh OLFML3 (11715873_a_at) / RFU LOC100653217 /// NTM (11731650_a_at) / Fold change /veh LOC100653217 /// NTM (11731650_a_at) / RFU MAPK11 (11762145_a_at) / Fold change /veh MAPK11 (11762145_a_at) / RFU FIZ1 (11724087_x_at) / Fold change /veh FIZ1 (11724087_x_at) / RFU OASL (11726364_x_at) / Fold change /veh OASL (11726364_x_at) / RFU SOX15 (11748057_x_at) / Fold change /veh SOX15 (11748057_x_at) / RFU CD79A (11719716_a_at) / Fold change /veh CD79A (11719716_a_at) / RFU HIST1H1D (11736915_at) / Fold change /veh HIST1H1D (11736915_at) / RFU CASKIN2 (11723855_a_at) / Fold change /veh CASKIN2 (11723855_a_at) / RFU LOC730098 (11760151_x_at) / Fold change /veh LOC730098 (11760151_x_at) / RFU OR4N2 (11742367_at) / Fold change /veh OR4N2 (11742367_at) / RFU PRRT2 (11749266_a_at) / Fold change /veh PRRT2 (11749266_a_at) / RFU SNX32 (11753110_a_at) / Fold change /veh SNX32 (11753110_a_at) / RFU CDHR5 (11726645_a_at) / Fold change /veh CDHR5 (11726645_a_at) / RFU RCAN1 (11760418_a_at) / Fold change /veh RCAN1 (11760418_a_at) / RFU FAM167A (11723789_a_at) / Fold change /veh FAM167A (11723789_a_at) / RFU FAM26E (11764081_at) / Fold change /veh FAM26E (11764081_at) / RFU ISYNA1 (11749810_s_at) / Fold change /veh ISYNA1 (11749810_s_at) / RFU ACY1 (11761880_at) / Fold change /veh ACY1 (11761880_at) / RFU 11764098_at / Fold change /veh 11764098_at / RFU SAMD14 (11745864_x_at) / Fold change /veh SAMD14 (11745864_x_at) / RFU NPB (11741838_a_at) / Fold change /veh NPB (11741838_a_at) / RFU TMPRSS6 (11731388_a_at) / Fold change /veh TMPRSS6 (11731388_a_at) / RFU KRTAP10-2 (11738614_at) / Fold change /veh KRTAP10-2 (11738614_at) / RFU ARHGAP8 /// PRR5-ARHGAP8 (11727945_x_at) / Fold change /veh ARHGAP8 /// PRR5-ARHGAP8 (11727945_x_at) / RFU KRTAP5-7 /// NADSYN1 (11734609_at) / Fold change /veh KRTAP5-7 /// NADSYN1 (11734609_at) / RFU RASL12 (11751679_a_at) / Fold change /veh RASL12 (11751679_a_at) / RFU CDKN2B (11736163_a_at) / Fold change /veh CDKN2B (11736163_a_at) / RFU PRF1 (11729649_at) / Fold change /veh PRF1 (11729649_at) / RFU, ZNF638 /// ZNF638-IT1 / Fold change vs veh, ZNF638 /// ZNF638-IT1 / RFU, PANK3 / Fold change vs veh, PANK3 / RFU, SH3YL1 / Fold change vs veh, SH3YL1 / RFU, ZEB2 / Fold change vs veh, ZEB2 / RFU, NRIP1 / Fold change vs veh, NRIP1 / RFU, PTTG1IP / Fold change vs veh, PTTG1IP / RFU, CAPN2 / Fold change vs veh, CAPN2 / RFU, MED14 / Fold change vs veh, MED14 / RFU, SNORA58 / Fold change vs veh, SNORA58 / RFU, C1orf63 / Fold change vs veh, C1orf63 / RFU, LRRFIP1 / Fold change vs veh, LRRFIP1 / RFU, NDUFAF7 / Fold change vs veh, NDUFAF7 / RFU, SLC12A2 / Fold change vs veh, SLC12A2 / RFU, IBTK / Fold change vs veh, IBTK / RFU, ESF1 / Fold change vs veh, ESF1 / Fold change vs veh, TMEM50B / RFU, TAOK1 / Fold change vs veh, TAOK1 / RFU, ACBD3 / Fold change vs veh, ACBD3 / RFU, TMA16 / Fold change vs veh, TMA16 / RFU, RWDD3 / Fold change vs veh, RWDD3 / RFU, BCAT1 / Fold change vs veh, BCAT1 / RFU, EDEM3 / Fold change vs veh, EDEM3 / RFU, TMEM33 / Fold change vs veh, TMEM33 / RFU, WDR75 / Fold change vs veh, WDR75 / RFU, AHCTF1 / Fold change vs veh, AHCTF1 / RFU, TFRC / Fold change vs veh, TFRC / RFU, ZDHHC17 / Fold change vs veh, ZDHHC17 / RFU, NOM1 / Fold change vs veh, NOM1 / RFU, ARL8B / Fold change vs veh, ARL8B / RFU, ZBTB11 / Fold change vs veh, ZBTB11 / RFU, TAMM41 / Fold change vs veh, TAMM41 / RFU, KIAA1704 /// LOC100996395 / Fold change vs veh, KIAA1704 /// LOC100996395 / RFU, ING1 / Fold change vs veh, ING1 / RFU, TRMT61B / Fold change vs veh, TRMT61B / RFU, FUBP3 / Fold change vs veh, FUBP3 / RFU, TP53 / Fold change vs veh, TP53 / RFU, TNKS2 / Fold change vs veh, TNKS2 / RFU, ZFP14 / Fold change vs veh, ZFP14 / RFU, ACTR2 / Fold change vs veh, ACTR2 / RFU, PPP3R1 / Fold change vs veh, PPP3R1 / RFU, PIK3R1 / Fold change vs veh, PIK3R1 / RFU, HNRNPA1 / Fold change vs veh, HNRNPA1 / RFU, RNF170 / Fold change vs veh, RNF170 / RFU, ZNF28 / Fold change vs veh, ZNF28 / RFU, RNGTT / Fold change vs veh, RNGTT / RFU, OGT / Fold change vs veh, OGT / RFU, BRD1 / Fold change vs veh, BRD1 / RFU, MARS / Fold change vs veh, MARS / RFU, ZNF655 / Fold change vs veh, ZNF655 / RFU, FAHD1 / Fold change vs veh, FAHD1 / RFU, BDP1 / Fold change vs veh, BDP1 / RFU, LRRCC1 / Fold change vs veh, LRRCC1 / RFU, ARID1A / Fold change vs veh, ARID1A / RFU, ZNF146 / Fold change vs veh, ZNF146 / RFU, ZNF330 / Fold change vs veh, ZNF330 / RFU, GPN3 / Fold change vs veh, GPN3 / RFU, C9orf123 / Fold change vs veh, C9orf123 / RFU, N4BP2L2 / Fold change vs veh, N4BP2L2 / RFU, ARFIP1 / Fold change vs veh, ARFIP1 / RFU, FAM179B / Fold change vs veh, FAM179B / RFU, BCL10 / Fold change vs veh, BCL10 / RFU, UHRF1BP1L / Fold change vs veh, UHRF1BP1L / RFU, BET1 / Fold change vs veh, BET1 / RFU, CNOT2 / Fold change vs veh, CNOT2 / RFU, ZNF268 / Fold change vs veh, ZNF268 / Fold change vs veh, ZNF507 / RFU, DGCR2 / Fold change vs veh, DGCR2 / RFU, WDSUB1 / Fold change vs veh, WDSUB1 / Fold change vs veh, HSP90B1 /// MIR3652 / RFU, ADSS / Fold change vs veh, ADSS / RFU, GK / Fold change vs veh, GK / RFU, ZNF148 / Fold change vs veh, ZNF148 / RFU, TAF9 / Fold change vs veh, TAF9 / RFU, SLC1A5 / Fold change vs veh, SLC1A5 / RFU, SLMO2 / Fold change vs veh, SLMO2 / RFU, ABCC4 / Fold change vs veh, ABCC4 / RFU, LOC101060439 /// RAP1B / Fold change vs veh, LOC101060439 /// RAP1B / RFU, RFX7 / Fold change vs veh, RFX7 / RFU, GTPBP10 / Fold change vs veh, GTPBP10 / RFU, CNEP1R1 / Fold change vs veh, CNEP1R1 / RFU, BIVM-ERCC5 /// ERCC5 / Fold change vs veh, BIVM-ERCC5 /// ERCC5 / RFU, ILF3 / Fold change vs veh, ILF3 / RFU 11762660_at / Fold change /veh 11762660_at / RFU VCAN (11757783_s_at) / Fold change /veh VCAN (11757783_s_at) / RFU DDX43 (11728927_at) / Fold change /veh DDX43 (11728927_at) / RFU KRT8 (11758188_x_at) / Fold change /veh KRT8 (11758188_x_at) / RFU NKD1 (11759106_at) / Fold change /veh NKD1 (11759106_at) / RFU SRD5A1 (11742802_a_at) / Fold change /veh SRD5A1 (11742802_a_at) / RFU TPSAB1 /// TPSB2 (11721975_s_at) / Fold change /veh TPSAB1 /// TPSB2 (11721975_s_at) / RFU GSTM3 (11746129_a_at) / Fold change /veh GSTM3 (11746129_a_at) / RFU IL23R (11737362_x_at) / Fold change /veh IL23R (11737362_x_at) / RFU TMEM51 (11727254_a_at) / Fold change /veh TMEM51 (11727254_a_at) / RFU PIWIL2 (11732686_x_at) / Fold change /veh PIWIL2 (11732686_x_at) / RFU ORM1 (11744905_x_at) / Fold change /veh ORM1 (11744905_x_at) / RFU CCDC152 (11743942_at) / Fold change /veh CCDC152 (11743942_at) / RFU ECM1 (11717891_a_at) / Fold change /veh ECM1 (11717891_a_at) / RFU IL23R (11748794_a_at) / Fold change /veh IL23R (11748794_a_at) / RFU TNFAIP8L3 (11732012_x_at) / Fold change /veh TNFAIP8L3 (11732012_x_at) / RFU MBOAT4 (11741988_at) / Fold change /veh MBOAT4 (11741988_at) / RFU 11764193_at / Fold change /veh 11764193_at / RFU TMEM53 (11763286_at) / Fold change /veh TMEM53 (11763286_at) / RFU MAGEB2 (11727129_at) / Fold change /veh MAGEB2 (11727129_at) / RFU TMEM200A (11744735_a_at) / Fold change /veh TMEM200A (11744735_a_at) / RFU CCDC152 (11751479_a_at) / Fold change /veh CCDC152 (11751479_a_at) / RFU FAM211A (11726209_a_at) / Fold change /veh FAM211A (11726209_a_at) / RFU RGS16 (11746705_a_at) / Fold change /veh RGS16 (11746705_a_at) / RFU VCAN (11755009_s_at) / Fold change /veh VCAN (11755009_s_at) / RFU RHOB (11743442_s_at) / Fold change /veh RHOB (11743442_s_at) / RFU RGS16 (11720943_a_at) / Fold change /veh RGS16 (11720943_a_at) / RFU RGS16 (11720944_at) / Fold change /veh RGS16 (11720944_at) / RFU, VPS4B / Fold change vs veh, VPS4B / RFU, CREB1 / Fold change vs veh, CREB1 / RFU, DNAJC13 / Fold change vs veh, DNAJC13 / RFU, GNAQ / Fold change vs veh, GNAQ / RFU, CDK5R1 / Fold change vs veh, CDK5R1 / RFU, ZRANB3 / Fold change vs veh, ZRANB3 / RFU, CUL4A / Fold change vs veh, CUL4A / RFU, CCNY / Fold change vs veh, CCNY / RFU, UFL1 / Fold change vs veh, UFL1 / RFU, COG3 / Fold change vs veh, COG3 / RFU, DIAPH2 / Fold change vs veh, DIAPH2 / RFU, SKA2 / Fold change vs veh, SKA2 / RFU, AFF3 / Fold change vs veh, AFF3 / RFU, LMF1 / Fold change vs veh, LMF1 / RFU, IPO11 / Fold change vs veh, IPO11 / RFU, DFFB / Fold change vs veh, DFFB / RFU, FOXP1 / Fold change vs veh, FOXP1 / RFU, CARD8 / Fold change vs veh, CARD8 / RFU, STRN3 / Fold change vs veh, STRN3 / RFU, ADK / Fold change vs veh, ADK / RFU, RASSF2 / Fold change vs veh, RASSF2 / RFU, WIPF1 / Fold change vs veh, WIPF1 / RFU, LARP1B / Fold change vs veh, LARP1B / RFU, RASA1 / Fold change vs veh, RASA1 / RFU, RB1 / Fold change vs veh, RB1 / RFU, PPFIA1 / Fold change vs veh, PPFIA1 / RFU, MAT2A / Fold change vs veh, MAT2A / RFU, CCT5 / Fold change vs veh, CCT5 / RFU, WDR92 / Fold change vs veh, WDR92 / RFU, CUX1 / Fold change vs veh, CUX1 / RFU, TTC7A / Fold change vs veh, TTC7A / RFU, TMEM135 / Fold change vs veh, TMEM135 / RFU, DEPTOR / Fold change vs veh, DEPTOR / RFU, CPM / Fold change vs veh, CPM / RFU, DNAJB6 / Fold change vs veh, DNAJB6 / RFU, CACNA2D3 / Fold change vs veh, CACNA2D3 / RFU, DTX4 / Fold change vs veh, DTX4 / RFU, TFCP2 / Fold change vs veh, TFCP2 / RFU, GMCL1 /// GMCL1P1 / Fold change vs veh, GMCL1 /// GMCL1P1 / RFU, AEBP2 / Fold change vs veh, AEBP2 / RFU, SNHG1 /// SNORD22 /// SNORD25 /// SNORD26 /// SNORD27 /// SNORD28 /// SNORD29 /// SNORD31 / Fold change vs veh, SNHG1 /// SNORD22 /// SNORD25 /// SNORD26 /// SNORD27 /// SNORD28 /// SNORD29 /// SNORD31 / Fold change (Aza/veh), C12orf56 (ProbeSet 11735607_a_at) / Fold change (ACY-1035/veh), C12orf56 (ProbeSet 11735607_a_at) / Fold change (Aza/veh), FGFR1OP (ProbeSet 11751329_s_at) / Fold change (ACY-1035/veh), FGFR1OP (ProbeSet 11751329_s_at) / Fold change (Aza/veh), VPS36 (ProbeSet 11739960_a_at) / Fold change (ACY-1035/veh), VPS36 (ProbeSet 11739960_a_at) / RFU SYPL1 (11715823_x_at) / Fold change /veh SYPL1 (11715823_x_at) / RFU IGFBP7 (11715501_s_at) / Fold change /veh IGFBP7 (11715501_s_at) / RFU REEP3 (11722064_at) / Fold change /veh REEP3 (11722064_at) / RFU IGLL1 (11728026_x_at) / Fold change /veh IGLL1 (11728026_x_at): dose or concentration left out as unconfirmed.

Take `Nc1ncn([C@@H]2O[C@H](CO)[C@@H](O)[C@H]2O)c(=O)n1` [azacitidine]: the “Fold change /veh SAMD14 (11745864_x_at)” value was 0.91.

The values above are taken from article PMC5218480 (PLoS ONE, 2017).
